For orientation: Kd means the free concentration of one partner at which half of the binding sites on the other are occupied at equilibrium, for simple one-to-one binding.

The values that follow come from US9730937B2, “RAF kinase modulator compounds and methods of use thereof” (AMBIT BIOSCIENCES CORPORATION, priority 2008, dated 2017).

In one assay the target is wild type BRAF kinase (Homo sapiens (Human), UniProt P15056). The following applies: read-out: BRAF WT Kd, class symbols.
For a further assay, the target named is mutant BRAF kinase (Homo sapiens (Human), UniProt P15056, V600E). The following applies: read-out: BRAF V600E Kd, class symbols.
Sequence of mutant BRAF kinase (P15056 whole entry V600E): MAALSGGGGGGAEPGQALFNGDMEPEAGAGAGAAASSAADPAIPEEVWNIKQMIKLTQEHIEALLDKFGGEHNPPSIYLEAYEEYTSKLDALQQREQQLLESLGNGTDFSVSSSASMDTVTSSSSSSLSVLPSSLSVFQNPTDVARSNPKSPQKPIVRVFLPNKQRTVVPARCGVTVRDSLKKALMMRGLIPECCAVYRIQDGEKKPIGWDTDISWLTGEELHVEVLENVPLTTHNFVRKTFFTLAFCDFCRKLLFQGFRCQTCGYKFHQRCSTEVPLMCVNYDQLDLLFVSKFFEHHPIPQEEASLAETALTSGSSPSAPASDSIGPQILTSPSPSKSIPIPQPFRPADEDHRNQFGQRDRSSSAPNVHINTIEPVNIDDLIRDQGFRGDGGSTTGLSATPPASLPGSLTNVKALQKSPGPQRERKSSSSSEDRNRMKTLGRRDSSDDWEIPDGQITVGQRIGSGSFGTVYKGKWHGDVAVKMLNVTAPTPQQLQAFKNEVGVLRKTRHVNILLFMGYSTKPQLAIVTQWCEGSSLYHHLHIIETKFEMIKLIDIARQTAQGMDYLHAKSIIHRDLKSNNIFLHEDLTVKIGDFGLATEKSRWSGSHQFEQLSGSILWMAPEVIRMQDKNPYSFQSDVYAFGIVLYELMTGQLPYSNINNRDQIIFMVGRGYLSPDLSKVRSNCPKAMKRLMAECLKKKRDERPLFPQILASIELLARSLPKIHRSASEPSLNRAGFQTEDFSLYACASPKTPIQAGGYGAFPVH
A further assay has as its target RAF kinases (Homo sapiens (Human), UniProt P04049). The following applies: read-out: RAF1 Kd, class symbols.
Assay [1] has as its system panel of 290 distinct kinases (321 in the larger panel), excluding mutant variants. The following applies: kinase selectivity score, class symbols.
Method: (§1) The liganded beads were blocked with excess biotin and washed with blocking buffer (SeaBlock (Pierce), 1% BSA, 0.05% Tween 20, 1 mM DTT) to remove unbound ligand and to reduce non-specific binding. […] Test compounds were prepared as 100× stocks in DMSO and rapidly diluted into the aqueous environment. DMSO was added to control assays lacking a test compound. Primary screen interactions were performed in polypropylene 384-well plates in a final volume of 34 μL, while Kd determinations were performed in polystyrene 96-well plates in a final volume of 135 μL. […] The kinase concentration in the eluates was measured by quantitative PCR. Each kinase was tested individually against each compound. KdS were determined using eleven serial threefold dilutions. A selectivity score, which is a quantitative measure of selectivity of a compound against a panel of enzymes, may be calculated for a compound by dividing the number of enzymes for which a compound meets a set criteria, (for example, a binding constant of 100 nM or less), by the total number of enzymes tested. […] (Note, for those compounds tested in a larger kinase panel, as indicated by an asterisk (*) next to the S35 score, the divisor is 321 (i.e. the larger panel contains 321 distinct kinases, excluding mutant variants.)).
The mark [2] stands for this setting: value marked * (larger kinase panel).

Counter-ions that a name gives are not always drawn. Like-named read-outs stand apart in the source and are kept apart here. Bounds are passed on as bounds.

Sequence of RAF kinases (P04049 whole entry): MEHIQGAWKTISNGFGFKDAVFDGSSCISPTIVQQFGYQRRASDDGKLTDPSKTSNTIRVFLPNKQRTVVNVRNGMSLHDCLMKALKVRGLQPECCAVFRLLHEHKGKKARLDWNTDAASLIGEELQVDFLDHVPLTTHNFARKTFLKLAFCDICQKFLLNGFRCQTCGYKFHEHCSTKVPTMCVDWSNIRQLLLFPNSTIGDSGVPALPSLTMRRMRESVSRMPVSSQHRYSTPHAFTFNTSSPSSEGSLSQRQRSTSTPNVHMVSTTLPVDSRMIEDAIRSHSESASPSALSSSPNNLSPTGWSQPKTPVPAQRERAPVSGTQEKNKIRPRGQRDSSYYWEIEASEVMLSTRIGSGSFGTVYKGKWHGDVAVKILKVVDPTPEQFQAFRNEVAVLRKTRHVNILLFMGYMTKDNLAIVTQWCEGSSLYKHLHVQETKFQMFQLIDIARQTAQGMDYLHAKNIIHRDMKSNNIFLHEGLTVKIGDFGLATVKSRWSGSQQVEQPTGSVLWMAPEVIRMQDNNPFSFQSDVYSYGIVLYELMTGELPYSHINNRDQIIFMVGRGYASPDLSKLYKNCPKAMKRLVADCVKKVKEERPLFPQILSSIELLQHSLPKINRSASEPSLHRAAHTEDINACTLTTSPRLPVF
Sequence of wild type BRAF kinase (P15056 whole entry): as the sequence (P15056 whole entry V600E) above, with E600V counted along it
Method for RAF kinases: as §1

In the case of `COc1cc2ncnc(Sc3cccc(NC(=O)Nc4cc(C(C)(CF)CF)nn4-c4ccccc4)c3)c2cc1OC` [Ex 196, 1-[3-(1,3-difluoro-2-methylpropan-2-yl)-1-phenyl-1H-pyrazol-5-yl]-3-[3-(6,7-dimethoxyquinazolin-4-ylthio)phenyl]urea], the Kd at wild type BRAF kinase, on mutant BRAF kinase and on RAF kinases was more than 1000 nM each time. For the same molecule, the S35 entry in assay [1] (setting [2]) is “D* (D > 0.40)”.

Turning to `COc1cc2ncnc(Oc3cccc(NC(=O)Nc4cc(C(C)C)no4)c3)c2cc1OC` [Ex 122, 1-(3-(6,7-dimethoxyquinazolin-4-yloxy)phenyl)-3-(3-isopropylisoxazol-5-yl)urea], the Kd on wild type BRAF kinase, on mutant BRAF kinase and at RAF kinases was less than 250 nM each time. For the same molecule, in assay [1] (290 distinct kinases), the S35 result is “C (0.20 < C ≦ 0.40)”.

As to `COc1cc2ncnc(Sc3cccc(NC(=O)Nc4cc(C(C)(C)C)on4)c3)c2cc1OCCN1CCS(=O)(=O)CC1` [Ex 71, 1-(5-tert-butyl-isoxazol-3-yl)-3-(3-{6-[2-(1,1-dioxo-thiomorpholin-4-yl)-ethoxy]-7-methoxy-quinazolin-4-ylsulfanyl}-phenyl)-urea], the Kd on wild type BRAF kinase, at mutant BRAF kinase and at RAF kinases was less than 250 nM throughout. The S35 entry in assay [1] (290 distinct kinases) was “C (0.20 < C ≦ 0.40)”.

On to `COc1cc2c(Oc3cccc(NC(=O)Nc4cc(C(C)(C)C)on4)c3)ncnc2cc1O[C@H]1CCN(CC(F)(F)F)C1` [Ex 104, (S)-1-(5-tert-butylisoxazol-3-yl)-3-(3-{6-methoxy-7-[1-(2,2,2-trifluoroethyl)pyrrolidin-3-yloxy]quinazolin-4-yloxy}phenyl)urea], for which the Kd on wild type BRAF kinase, at mutant BRAF kinase and at RAF kinases was more than 1000 nM throughout. Further, the S35 entry in assay [1] (setting [2]) was “B* (0.10 < B ≦ 0.20)”.

Consider `COc1cc2ncnc(Oc3cccc(NC(=O)Nc4cc(C5CC5)no4)c3)c2cc1OC` [Ex 124, 1-(3-cyclopropylisoxazol-5-yl)-3-(3-(6,7-dimethoxyquinazolin-4-yloxy)phenyl)urea], for which the Kd on wild type BRAF kinase, on mutant BRAF kinase and on RAF kinases was less than 250 nM throughout. For the same molecule, the S35 result in assay [1] (290 distinct kinases) was “C (0.20 < C ≦ 0.40)”.

In the case of `COc1cc2ncnc(Sc3cccc(NC(=O)Nc4cc(C(C)(C)C)on4)c3)c2cc1OCCCS(C)(=O)=O` [Ex 64, 1-(5-tert-butylisoxazol-3-yl)-3-(3-(7-methoxy-6-(3-(methylsulfonyl)propoxy)quinazolin-4-ylthio)phenyl)urea], the dissociation constant (Kd) at wild type BRAF kinase, at mutant BRAF kinase and at RAF kinases was less than 250 nM in each case. Moreover, in assay [1] (290 distinct kinases), the S35 entry is given as “C (0.20 < C ≦ 0.40)”.

Regarding `COc1cc2ncnc(Oc3cccc(NC(=O)Nc4cc(C(C)C)on4)c3)c2cc1OC` [Ex 133, 1-(3-(6,7-dimethoxyquinazolin-4-yloxy)phenyl)-3-(5-isopropylisoxazol-3-yl)urea], the dissociation constant Kd at wild type BRAF kinase, on mutant BRAF kinase and at RAF kinases was less than 250 nM each time. In assay [1] (setting [2]), the S35 result was “C* (0.20 < C ≦ 0.40)”.

For `COc1cc2ncnc(Oc3cccc(NC(=O)Nc4cc(C(C)(CF)CF)nn4-c4ccccc4)c3)c2cc1OC` [Ex 167, 1-[3-(1,3-difluoro-2-methylpropan-2-yl)-1-phenyl-1H-pyrazol-5-yl]-3-[3-(6,7-dimethoxyquinazolin-4-yloxy)phenyl]urea], the equilibrium dissociation constant (Kd) at wild type BRAF kinase, on mutant BRAF kinase and at RAF kinases was more than 1000 nM each time. For the same molecule, the S35 entry in assay [1] (setting [2]) is listed as “D* (D > 0.40)”.

As for `COc1cc2ncnc(Oc3cccc(NC(=O)Nc4ccccc4)c3)c2cc1OC` [Ex 182, 1-(3-(6,7-dimethoxyquinazolin-4-yloxy)phenyl)-3-phenylurea], the dissociation constant (Kd) at wild type BRAF kinase, on mutant BRAF kinase and at RAF kinases was more than 1000 nM in each case.

With `COCC(C)(C)c1cc(NC(=O)Nc2cccc(Oc3ncnc4cc(OC)c(OC)cc34)c2)no1` [Ex 130, 1-(3-(6,7-dimethoxyquinazolin-4-yloxy)phenyl)-3-(5-(1-methoxy-2-methylpropan-2-yl)isoxazol-3-yl)urea], the equilibrium dissociation constant (Kd) at wild type BRAF kinase and on RAF kinases was more than 1000 nM each time. Besides, the S35 result in assay [1] (290 distinct kinases) is “C (0.20 < C ≦ 0.40)”.

Regarding `COc1cc2ncnc(Oc3cccc(NC(=O)Nc4cc(C(F)(F)F)nn4-c4ccc(F)cc4)c3)c2cc1OC` [Ex 171, 1-[3-(6,7-dimethoxyquinazolin-4-yloxy)phenyl]-3-[1-(4-fluorophenyl)-3-(trifluoromethyl)-1H-pyrazol-5-yl]urea], the dissociation constant Kd at wild type BRAF kinase and on RAF kinases was more than 1000 nM in each case. In addition, in assay [1] (setting [2]), the S35 entry is listed as “C* (0.20 < C ≦ 0.40)”.

On to `COc1cc2ncnc(Sc3cccc(NC(=O)Nc4cc(C5(C(F)(F)F)CCC5)no4)c3)c2cc1OC` [Ex 156, 1-(3-(6,7-dimethoxyquinazolin-4-ylthio)phenyl)-3-(3-(1-(trifluoromethyl)cyclobutyl)isoxazol-5-yl)urea], for which the Kd on wild type BRAF kinase and on RAF kinases was more than 1000 nM in each case. Moreover, in assay [1] (setting [2]), the S35 entry is “C* (0.20 < C ≦ 0.40)”.

With `COc1cc2ncnc(Oc3cccc(NC(=O)Nc4cc(C5(C(F)(F)F)CCC5)no4)c3)c2cc1OC` [Ex 155, 1-(3-(6,7-dimethoxyquinazolin-4-yloxy)phenyl)-3-(3-(1-(trifluoromethyl)cyclobutyl)isoxazol-5-yl)urea], the dissociation constant Kd at wild type BRAF kinase and on RAF kinases was more than 1000 nM in each case. The S35 result in assay [1] (setting [2]) is listed as “C* (0.20 < C ≦ 0.40)”.

In the case of `CCOc1cc2ncnc(Oc3cccc(NC(=O)Nc4cc(C(C)(C)C)on4)c3)c2cc1OCC` [Ex 13, 1-(5-tert-butylisoxazol-3-yl)-3-[3-(6,7-diethoxyquinazolin-4-yloxy)phenyl]urea hydrochloride], the Kd at wild type BRAF kinase and at RAF kinases was more than 1000 nM each time. In assay [1] (290 distinct kinases), the S35 entry was “C (0.20 < C ≦ 0.40)”.

Consider `CC(C)(C)c1cc(NC(=O)Nc2cccc(Sc3ncnc4cc(F)c(F)cc34)c2)no1` [Ex 47, 1-(5-tert-butylisoxazol-3-yl)-3-(3-(6,7-difluoroquinazolin-4-ylthio)phenyl)urea], for which the dissociation constant Kd on wild type BRAF kinase and on RAF kinases was more than 1000 nM throughout. Moreover, the S35 result in assay [1] (290 distinct kinases) is “A (A ≦ 0.10)”.

On to `COc1cc2ncnc(Oc3cc(NC(=O)Nc4cc(C(C)(C)C)on4)ccc3Cl)c2cc1OC` [Ex 10, 1-(5-tert-butylisoxazol-3-yl)-3-(4-chloro-3-(6,7-dimethoxyquinazolin-4-yloxy)phenyl)urea], for which the dissociation constant Kd at wild type BRAF kinase and on RAF kinases was more than 1000 nM in each case. Further, in assay [1] (290 distinct kinases), the S35 entry is “C (0.20 < C ≦ 0.40)”.

In the case of `COc1cc2ncnc(Oc3cccc(NC(=O)Nc4cc(C(C)(C)C)on4)c3)c2cc1O[C@H]1CCN(C(=O)OC(C)(C)C)C1` [Ex 108, (S)-tert-butyl 3-(4-(3-(3-(5-tert-butylisoxazole-3-yl)ureido)phenoxy)-7-methoxyquinazolin-6-yloxy)pyrrolidine-1-carboxylate], the equilibrium dissociation constant (Kd) at wild type BRAF kinase and on RAF kinases was more than 1000 nM each time. Besides, the S35 entry in assay [1] (290 distinct kinases) is on record as “C (0.20 < C ≦ 0.40)”.

Regarding `CCOC(=O)Cn1nc(C(C)(C)C)cc1NC(=O)Nc1cccc(Oc2ncnc3cc(OC)c(OC)cc23)c1` [Ex 166, ethyl 2-(3-tert-butyl-5-{3-[3-(6,7-dimethoxyquinazolin-4-yloxy)phenyl]ureido}-1H-pyrazol-1-yl)acetate], the Kd on wild type BRAF kinase and at RAF kinases was more than 1000 nM throughout. Besides, in assay [1] (setting [2]), the S35 entry was “C* (0.20 < C ≦ 0.40)”.

As for `COc1cc2ncnc(Sc3cccc(NC(=O)Nc4cc(C(F)(F)F)nn4-c4ccccc4)c3)c2cc1OC` [Ex 192, 1-[3-(6,7-dimethoxyquinazolin-4-ylthio)phenyl]-3-[1-phenyl-3-(trifluoromethyl)-1H-pyrazol-5-yl]urea], the Kd at wild type BRAF kinase and on RAF kinases was more than 1000 nM each time. The S35 result in assay [1] (setting [2]) is reported as “C* (0.20 < C ≦ 0.40)”.

With `COc1cc2ncnc(Oc3cccc(NC(=O)Nc4cc(C(C)(C)C)nn4-c4ccccc4)c3)c2cc1OC` [Ex 153, 1-(3-tert-butyl-1-phenyl-1H-pyrazol-5-yl)-3-(3-(6,7-dimethoxyquinazolin-4-yloxy)phenyl)urea], the Kd at wild type BRAF kinase and on RAF kinases was more than 1000 nM each time. Besides, the S35 entry in assay [1] (setting [2]) is recorded as “D* (D > 0.40)”.

With `CCOC(=O)Cn1nc(C(C)(C)C)cc1NC(=O)Nc1cccc(Sc2ncnc3cc(OC)c(OC)cc23)c1` [Ex 195, ethyl 2-(3-tert-butyl-5-{3-[3-(6,7-dimethoxyquinazolin-4-ylthio)phenyl]ureido}-1H-pyrazol-1-yl)acetate], the Kd at wild type BRAF kinase and on RAF kinases was more than 1000 nM in each case. Besides, the S35 entry in assay [1] (setting [2]) is reported as “C* (0.20 < C ≦ 0.40)”.

In the case of `COc1cc2c(Oc3cccc(NC(=O)Nc4cc(C(C)(C)C)on4)c3)ncnc2cc1O[C@H]1CCN(CC(F)F)C1` [Ex 103, (S)-1-(5-tert-butylisoxazol-3-yl)-3-(3-{7-[1-(2,2-difluoroethyl)pyrrolidin-3-yloxy]-6-methoxyquinazolin-4-yloxy}phenyl)urea], the equilibrium dissociation constant (Kd) on wild type BRAF kinase and at RAF kinases was more than 1000 nM each time. Also, in assay [1] (setting [2]), the S35 entry was “C* (0.20 < C ≦ 0.40)”.

As for `CC(C)(C)c1cc(NC(=O)Nc2cccc(Sc3ncnc4cc5c(cc34)OCCO5)c2)no1` [Ex 54, 1-(5-tert-butylisoxazol-3-yl)-3-[3-(7,8-dihydro-[1,4]dioxino[2,3-g]quinazolin-4-ylthio)phenyl]urea hydrochloride], the Kd at wild type BRAF kinase and at RAF kinases was more than 1000 nM in each case. Also, in assay [1] (290 distinct kinases), the S35 entry is on record as “C (0.20 < C ≦ 0.40)”.

Turning to `CCOC(C)(C)c1cc(NC(=O)Nc2cccc(Oc3ncnc4cc(OC)c(OC)cc34)c2)n(-c2ccccc2)n1` [Ex 168, 1-[3-(6,7-dimethoxyquinazolin-4-yloxy)phenyl]-3-[3-(2-ethoxypropan-2-yl)-1-phenyl-1H-pyrazol-5-yl]urea], the Kd at wild type BRAF kinase and at RAF kinases was more than 1000 nM each time. In assay [1] (setting [2]), the S35 entry is reported as “C* (0.20 < C ≦ 0.40)”.
